One test has as its target GSK3β (h) (Homo sapiens, UniProt P49841). Put plainly: GSK-3β human kinase inhibition, SPA. It is filed as biochemical. The settings on record: read-out: GSK3b pIC50 (converted). The gist of the method: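 Radiometric: 33P-labelled peptide captured on streptavidin SPA beads after EDTA stop and imaged on Leadseeker. Reaction ran 1 h at RT, 1 μM cold ATP with 2 nM [γ-33P]ATP, 1 μM biotin-peptide substrate, human GSK3β 1 μg/ml, pH 7.4 Tris buffer.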

A further test addresses AuroraB (h) (Homo sapiens, UniProt Q96GD4). In words: Aurora-B human kinase inhibition, SPA. It is filed as biochemical. The settings on record: read-out: AuroraB pIC50 (converted). The method in brief:
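AuroraB (0.5 μg/ml) phosphorylates 3 μM biotin-peptide using 0.5 μM ATP spiked with 33P-ATP in Hepes pH 7.5 with 3 mM MgCl2 and MnCl2, for 60 min at room temperature. EDTA stop solution carries streptavidin scintillant beads, and the captured radiolabel is imaged.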

A further test deals with CDK4/CyclinD1 (h) (Homo sapiens, UniProt P11802). Put plainly: CDK4/CyclinD1 human kinase inhibition, SPA with GST-pRb substrate. The class given is biochemical. Conditions: read-out: CDK4 pIC50 (converted). The gist of the method: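 Scintillation proximity format: after EDTA/Triton stop containing glutathione SPA beads, 33P incorporation was counted. The reaction ran 60 min at room temperature in Hepes pH 7.5 with NaF, MgCl2, DTT, using 2.5 μg/ml human CDK4/CyclinD1, 40 μg/ml GST-pRb substrate and 2 nM [γ-33P]ATP.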

A further test has as its system MDA-MB-231. Put plainly: Cellular proliferation assay (Alamar blue), MDA-MB-231. It is filed as cell-based. Conditions: Homo sapiens, 10% FCS, 72 hours with compound, Alamar blue 24 h, read-out: MDA/MB231 (cellular proliferation assay, Table 4) (converted). The gist of the method:
(§1)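 After a 24 h compound-free attachment period, cells in 10% FCS medium are treated for 72 h at 37° C. Resazurin conversion is then quantified by fluorescence, with dye incubation lasting 4 h for HCT-116, 6 h for U87-MG and 24 h for A2780 or MDA-MB-231.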
For orientation: Resazurin is reduced to fluorescent resorufin, in cell work by metabolically active cells.

The target of another test is PLK2 (h) (Homo sapiens, UniProt Q9NYY3). Put plainly: PLK2 human kinase inhibition, SPA. The class given is biochemical. The settings on record: read-out: PLK2 pIC50 (converted). The gist of the method:
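33P incorporation into a biotinylated peptide (2 μM) was captured on streptavidin PVT beads and imaged on Leadseeker. Enzyme at 30 μg/ml, ATP 0.1 μM with 2 nM [γ-33P]ATP, Hepes pH 8.0 with MnCl2 and DTT. Incubation was 20 min at room temperature.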

A further test relates to HCT-116. In words: Cellular proliferation assay (Alamar blue), HCT-116. The class given is cell-based. The settings on record: Homo sapiens, 10% FCS, 72 hours with compound, Alamar blue 4 h. The method in brief:
as §1

In another test the test system is A2780. In words: Cellular proliferation assay (Alamar blue), A2780. It is filed as cell-based. Conditions: Homo sapiens, 10% FCS, 72 hours with compound, Alamar blue 24 h, read-out: A2780 (cellular proliferation assay, Table 4) (converted). The gist of the method:
as §1

In another test the target is PLK4 (h) (Homo sapiens, UniProt O00444). Put plainly: PLK-4 human kinase inhibition, scintillation proximity assay (SPA). The class given is biochemical. Conditions: read-out: PLK4 pIC50 (converted). On the technique in general: Scintillation proximity formats need no separation of bound from free tracer.
For another test, the target named is PLK3 (h) (Homo sapiens, UniProt Q9H4B4). Put plainly: PLK3 human kinase inhibition, SPA. The class given is biochemical. The settings on record: read-out: PLK3 pIC50 (converted). The gist of the method:
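Radiometric scintillation proximity format at pH 8.0 (Hepes, MnCl2, DTT). The 2 μM biotin-peptide substrate is phosphorylated by PLK3 (h) (30 μg/ml) using 0.1 μM ATP traced with 33P, for 20 min at room temperature. EDTA stop; phosphopeptide captured on streptavidin beads and imaged.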

The source of these data is patent US8609836B2, “4-aryl-2-anilino-pyrimidines” (Janssen Pharmaceutica NV, priority 2008, dated 2013).

A value given as a limit tells only on which side of the number the result lay.

Chain of PLK4 (h) (O00444 whole entry): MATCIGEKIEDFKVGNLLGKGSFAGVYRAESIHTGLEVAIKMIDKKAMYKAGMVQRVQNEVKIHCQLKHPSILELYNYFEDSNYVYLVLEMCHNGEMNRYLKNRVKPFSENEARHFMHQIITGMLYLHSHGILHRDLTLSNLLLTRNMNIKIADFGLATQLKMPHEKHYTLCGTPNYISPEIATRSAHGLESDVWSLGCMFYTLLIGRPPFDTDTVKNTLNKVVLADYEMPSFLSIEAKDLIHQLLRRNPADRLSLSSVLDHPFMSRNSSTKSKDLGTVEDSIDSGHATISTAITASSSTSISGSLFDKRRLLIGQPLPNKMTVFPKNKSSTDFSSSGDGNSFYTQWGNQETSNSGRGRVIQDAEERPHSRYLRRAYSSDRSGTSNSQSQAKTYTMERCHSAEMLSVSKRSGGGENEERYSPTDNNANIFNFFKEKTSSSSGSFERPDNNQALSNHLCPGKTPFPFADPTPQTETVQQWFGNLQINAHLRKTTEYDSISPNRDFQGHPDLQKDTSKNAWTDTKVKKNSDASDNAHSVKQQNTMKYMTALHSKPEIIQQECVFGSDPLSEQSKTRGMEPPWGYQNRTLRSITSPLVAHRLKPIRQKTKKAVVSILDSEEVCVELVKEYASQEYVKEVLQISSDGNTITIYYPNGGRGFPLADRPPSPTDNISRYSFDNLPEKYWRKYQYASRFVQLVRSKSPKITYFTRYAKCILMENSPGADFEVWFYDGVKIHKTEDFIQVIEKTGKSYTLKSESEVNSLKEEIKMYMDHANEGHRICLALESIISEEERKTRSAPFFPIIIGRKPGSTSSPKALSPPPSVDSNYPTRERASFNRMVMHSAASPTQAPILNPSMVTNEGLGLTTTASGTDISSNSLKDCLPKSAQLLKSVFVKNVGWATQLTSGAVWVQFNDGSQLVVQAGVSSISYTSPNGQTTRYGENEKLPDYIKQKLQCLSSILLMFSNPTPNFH
Chain of GSK3β (h) (P49841 whole entry): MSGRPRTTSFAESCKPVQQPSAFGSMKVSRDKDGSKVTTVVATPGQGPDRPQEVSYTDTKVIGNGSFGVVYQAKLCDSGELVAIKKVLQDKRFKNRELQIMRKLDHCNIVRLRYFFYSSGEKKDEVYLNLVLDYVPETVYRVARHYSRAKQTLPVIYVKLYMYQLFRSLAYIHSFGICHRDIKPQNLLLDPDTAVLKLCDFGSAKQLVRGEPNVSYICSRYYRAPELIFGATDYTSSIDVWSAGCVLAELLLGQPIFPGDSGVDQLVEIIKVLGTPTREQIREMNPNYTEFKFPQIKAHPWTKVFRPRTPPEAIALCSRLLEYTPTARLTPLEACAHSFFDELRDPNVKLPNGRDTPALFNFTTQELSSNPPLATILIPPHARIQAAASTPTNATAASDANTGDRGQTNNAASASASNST
Chain of PLK3 (h) (Q9H4B4 whole entry): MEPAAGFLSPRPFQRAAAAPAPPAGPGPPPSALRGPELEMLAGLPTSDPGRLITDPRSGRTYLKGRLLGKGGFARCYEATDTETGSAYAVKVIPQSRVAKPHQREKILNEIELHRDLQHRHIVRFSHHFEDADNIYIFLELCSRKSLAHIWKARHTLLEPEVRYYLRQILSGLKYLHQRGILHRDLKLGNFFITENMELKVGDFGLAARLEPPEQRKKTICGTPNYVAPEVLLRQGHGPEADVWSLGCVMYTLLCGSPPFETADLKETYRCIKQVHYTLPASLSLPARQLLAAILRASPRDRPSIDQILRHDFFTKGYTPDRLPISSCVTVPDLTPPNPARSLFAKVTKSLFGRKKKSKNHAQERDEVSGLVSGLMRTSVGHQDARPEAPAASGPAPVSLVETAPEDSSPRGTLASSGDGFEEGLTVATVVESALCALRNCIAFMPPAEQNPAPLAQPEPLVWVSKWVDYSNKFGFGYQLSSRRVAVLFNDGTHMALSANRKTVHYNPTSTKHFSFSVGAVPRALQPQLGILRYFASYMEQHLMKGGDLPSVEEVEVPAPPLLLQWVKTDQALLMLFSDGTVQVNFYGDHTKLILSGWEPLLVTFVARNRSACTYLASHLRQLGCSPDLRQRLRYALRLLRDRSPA
Chain of CDK4/CyclinD1 (h) (P11802 whole entry): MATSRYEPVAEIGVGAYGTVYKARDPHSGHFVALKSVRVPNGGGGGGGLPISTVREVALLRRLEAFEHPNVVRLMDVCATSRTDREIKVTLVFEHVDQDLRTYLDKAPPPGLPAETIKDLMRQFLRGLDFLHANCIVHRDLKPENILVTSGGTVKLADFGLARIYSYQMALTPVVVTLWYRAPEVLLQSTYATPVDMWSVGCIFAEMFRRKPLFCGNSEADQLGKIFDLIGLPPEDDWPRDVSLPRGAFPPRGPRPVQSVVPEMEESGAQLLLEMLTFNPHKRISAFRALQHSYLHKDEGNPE
Chain of CDK4/CyclinD1 (h) (P24385 whole entry partner): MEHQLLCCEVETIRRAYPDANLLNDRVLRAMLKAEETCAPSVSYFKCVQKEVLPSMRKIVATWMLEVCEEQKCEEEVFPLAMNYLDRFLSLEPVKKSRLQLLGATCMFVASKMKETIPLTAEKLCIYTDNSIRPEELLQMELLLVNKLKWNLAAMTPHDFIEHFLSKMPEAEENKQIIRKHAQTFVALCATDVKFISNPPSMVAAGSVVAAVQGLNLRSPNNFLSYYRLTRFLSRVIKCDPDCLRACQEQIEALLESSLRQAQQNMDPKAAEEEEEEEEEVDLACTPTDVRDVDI
Chain of AuroraB (h) (Q96GD4 whole entry): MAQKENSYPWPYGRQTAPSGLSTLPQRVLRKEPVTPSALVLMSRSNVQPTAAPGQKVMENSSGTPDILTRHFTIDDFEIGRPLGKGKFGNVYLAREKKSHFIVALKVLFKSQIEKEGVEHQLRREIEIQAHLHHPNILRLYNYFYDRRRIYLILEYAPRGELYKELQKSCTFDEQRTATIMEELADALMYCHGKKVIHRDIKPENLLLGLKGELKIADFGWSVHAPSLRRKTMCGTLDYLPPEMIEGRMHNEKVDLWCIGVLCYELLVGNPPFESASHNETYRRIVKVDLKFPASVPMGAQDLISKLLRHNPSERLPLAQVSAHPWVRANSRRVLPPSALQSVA
Chain of PLK2 (h) (Q9NYY3 whole entry): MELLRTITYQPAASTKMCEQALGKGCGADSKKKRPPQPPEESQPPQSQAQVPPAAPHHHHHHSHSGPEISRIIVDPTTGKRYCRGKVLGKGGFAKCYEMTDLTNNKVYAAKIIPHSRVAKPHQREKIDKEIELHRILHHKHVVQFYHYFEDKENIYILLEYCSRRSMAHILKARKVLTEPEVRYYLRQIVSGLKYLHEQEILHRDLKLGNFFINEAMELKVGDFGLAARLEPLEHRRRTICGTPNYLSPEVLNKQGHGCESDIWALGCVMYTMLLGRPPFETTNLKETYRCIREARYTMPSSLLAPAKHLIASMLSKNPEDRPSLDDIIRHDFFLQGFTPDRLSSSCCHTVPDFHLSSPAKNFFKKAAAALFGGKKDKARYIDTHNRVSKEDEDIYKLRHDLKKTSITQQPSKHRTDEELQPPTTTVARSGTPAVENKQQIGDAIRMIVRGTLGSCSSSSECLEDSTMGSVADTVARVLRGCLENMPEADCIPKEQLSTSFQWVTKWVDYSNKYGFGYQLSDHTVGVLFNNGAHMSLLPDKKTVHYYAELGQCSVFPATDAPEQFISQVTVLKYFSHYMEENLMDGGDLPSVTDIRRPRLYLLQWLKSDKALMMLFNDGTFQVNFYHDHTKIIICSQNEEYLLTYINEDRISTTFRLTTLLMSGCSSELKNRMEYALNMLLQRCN

Regarding `CN1CCNC(=O)[C@@H]2CCCN2Cc2cc(Br)cc(c2)Nc2nccc(n2)-c2ccc(cc2)C1` [Compound 155], the IC50 was 2.34 µM at GSK3β (h); above 10 µM on AuroraB (h); above 10 µM at CDK4/CyclinD1 (h); above 10 µM in the test on MDA-MB-231; above 10 µM at PLK2 (h); above 10 µM with HCT-116. Besides, the IC50 in the test on A2780 is above 10 µM; on PLK4 (h) it was 0.832 µM; on PLK3 (h), above 10 µM.
Turning to `O=C1NCc2cccc(c2)-c2ccnc(n2)Nc2cc(CNC3CCOCC3)cc(c2)CN2CCC[C@@H]12` [Compound 29], the IC50 on GSK3β (h) was 0.112 µM; at AuroraB (h), above 10 µM; on CDK4/CyclinD1 (h), 1.23 µM; with MDA-MB-231, 2.09 µM; at PLK2 (h), above 10 µM; in the test with HCT-116, 0.646 µM. Moreover, the IC50 is 0.708 µM in the test on A2780, 0.162 µM at PLK4 (h) and above 10 µM on PLK3 (h).
Regarding `COc1ccc2cc1CN(C)CCNC(=O)C1CCN(CC1)Cc1cc(cc(N3CCOCC3)c1)Nc1nccc-2n1` [Compound 77], the IC50 on GSK3β (h) is 3.8 µM; on AuroraB (h), above 10 µM; at CDK4/CyclinD1 (h), above 10 µM; with MDA-MB-231 it was above 10 µM; at PLK2 (h), above 10 µM; in the test on HCT-116, above 10 µM. The IC50 is above 10 µM with A2780, 4.79 µM on PLK4 (h) and above 10 µM at PLK3 (h).
Turning to `O=C1CN2CCN(CC2)Cc2cc(ccc2N2CCOCC2)Nc2nccc(n2)-c2ccc(cc2)OCCN1` [Compound 9], the IC50 at GSK3β (h) is 1.45 µM; on AuroraB (h), above 10 µM; on CDK4/CyclinD1 (h), 7.94 µM; in the test with MDA-MB-231, above 10 µM; on PLK2 (h) it was above 10 µM; in the test on HCT-116, 7.76 µM. For the same compound, the IC50 in the test with A2780 is above 10 µM; at PLK4 (h) it was 0.417 µM; on PLK3 (h), above 10 µM.
Regarding `O=C1NCCCc2cc(ccn2)-c2ccnc(n2)Nc2ccc(N3CCOCC3)c(c2)CN2CCCC12` (stereo not drawn) [Compound 48], the IC50 is 9.12 µM on GSK3β (h); above 10 µM on AuroraB (h); above 10 µM at CDK4/CyclinD1 (h); above 10 µM with MDA-MB-231; above 10 µM on PLK2 (h); above 10 µM with HCT-116. The IC50 was above 10 µM in the test with A2780, 0.661 µM at PLK4 (h) and above 10 µM at PLK3 (h).
As for `CN1CCNC(=O)CN2CCN(CC2)Cc2cc(cc(N3CCOCC3)c2)Nc2nccc(n2)-c2ccc(cc2)C1` [Compound 135], the IC50 is 4.37 µM at GSK3β (h); above 10 µM at AuroraB (h); above 10 µM at CDK4/CyclinD1 (h); above 10 µM in the test on MDA-MB-231; above 10 µM on PLK2 (h); above 10 µM in the test on HCT-116. In addition, the figures for the IC50 in the test on A2780, at PLK4 (h) and at PLK3 (h) were above 10 µM, 1.74 µM and above 10 µM, respectively.
Take `COc1ccc2cc1CN(C)CCCNC(=O)CN1CCN(CC1)Cc1cc(cc(NC(C)C)c1)Nc1nccc-2n1` [Compound 130]: the IC50 at GSK3β (h) is 5.37 µM; on AuroraB (h), 6.31 µM; at CDK4/CyclinD1 (h), above 10 µM; in the test with MDA-MB-231, above 10 µM; on PLK2 (h) it was above 10 µM; in the test with HCT-116, above 10 µM. The IC50 with A2780 was above 10 µM; on PLK4 (h), 1.23 µM; on PLK3 (h) it was above 10 µM.
As to `CN1CCCNC(=O)C2CCN(CC2)Cc2cccc(c2)Nc2nccc(n2)-c2ccc(cc2)C1` [Compound 78], the IC50 at GSK3β (h) is above 10 µM; on AuroraB (h), above 10 µM; on CDK4/CyclinD1 (h), above 10 µM; with MDA-MB-231 it was 7.59 µM; on PLK2 (h) it was above 10 µM; in the test on HCT-116, above 10 µM. The IC50 in the test on A2780 is above 10 µM; at PLK4 (h), 4.9 µM; at PLK3 (h), above 10 µM.
Consider `O=C1NCc2cccc(c2)-c2ccnc(n2)Nc2ccc(N3CCOCC3)c(c2)CN2CCC[C@@H]12` [Compound 1], for which the IC50 was 0.724 µM at GSK3β (h); 4.37 µM at AuroraB (h); 2.14 µM at CDK4/CyclinD1 (h); above 10 µM in the test on MDA-MB-231; above 10 µM on PLK2 (h); 3.8 µM in the test with HCT-116. The values for the IC50 in the test on A2780, at PLK4 (h) and at PLK3 (h) were 2.34 µM, 0.0479 µM and above 10 µM, respectively.
`CC(C)Nc1cc2cc(c1)Nc1nccc(n1)-c1ccc(cc1)CN(C)CCNC(=O)[C@@H]1CCCN1C2` [Compound 153]: the IC50 is 3.24 µM on GSK3β (h); above 10 µM on AuroraB (h); above 10 µM at CDK4/CyclinD1 (h); above 10 µM with MDA-MB-231; above 10 µM on PLK2 (h); 5.5 µM in the test with HCT-116. Further, the IC50 is above 10 µM in the test on A2780, 0.776 µM on PLK4 (h) and above 10 µM on PLK3 (h).
For `O=C1NCCCOc2cccc(c2)-c2ccnc(n2)Nc2ccc(N3CCOCC3)c(c2)CN[C@H]1CO` [Compound 89], the IC50 on GSK3β (h) was 0.589 µM; on AuroraB (h) it was above 10 µM; on CDK4/CyclinD1 (h), 3.63 µM; with MDA-MB-231, above 10 µM; at PLK2 (h), above 10 µM; in the test on HCT-116, 4.37 µM. Moreover, the IC50 with A2780 is 6.76 µM; on PLK4 (h) it was 0.525 µM; at PLK3 (h), above 10 µM.
Regarding `COc1ccc2cc1CN(C)CCCNC(=O)[C@@H]1CCCN1Cc1cc(cc(N3CCOCC3)c1)Nc1nccc-2n1` [Compound 179], the IC50 on GSK3β (h), on AuroraB (h), at CDK4/CyclinD1 (h), in the test on MDA-MB-231, on PLK2 (h) and with HCT-116 was above 10 µM in each case. The IC50 with A2780, at PLK4 (h) and on PLK3 (h) was above 10 µM throughout.
On to `CC(C)Nc1cc2cc(c1)Nc1nccc(n1)-c1ccc(cc1)CN(C)CCNC(=O)C1CCN(CC1)C2` [Compound 61], for which the IC50 on GSK3β (h) was 7.59 µM; at AuroraB (h), 8.32 µM; on CDK4/CyclinD1 (h), 7.41 µM; in the test on MDA-MB-231 it was above 10 µM; at PLK2 (h), above 10 µM; in the test on HCT-116, 7.94 µM. Besides, the IC50 is 6.31 µM in the test on A2780, 0.724 µM on PLK4 (h) and above 10 µM at PLK3 (h).
Regarding `COc1ccc2cc1CN1CCN(CC1)CC(=O)N(C)CCN(C)c1ccc(cn1)-c1ccnc(n1)N2` [Compound 14], the IC50 was 4.9 µM on GSK3β (h); above 10 µM on AuroraB (h); above 10 µM at CDK4/CyclinD1 (h); above 10 µM with MDA-MB-231; above 10 µM at PLK2 (h); 5.89 µM in the test with HCT-116. In addition, the IC50 with A2780 is above 10 µM; on PLK4 (h), 1.35 µM; at PLK3 (h), above 10 µM.
Regarding `CN1CCNC(=O)C2CCN(CC2)Cc2cc(cc(N3CCOCC3)c2)Nc2nccc(n2)-c2ccc(cc2)C1` [Compound 68], the IC50 at GSK3β (h) was 5.89 µM; at AuroraB (h), above 10 µM; on CDK4/CyclinD1 (h), above 10 µM; with MDA-MB-231, above 10 µM; at PLK2 (h) it was above 10 µM; in the test on HCT-116, 8.13 µM. Besides, the IC50 in the test with A2780 was above 10 µM; at PLK4 (h), 1.55 µM; at PLK3 (h), above 10 µM.
Turning to `O=C1NCCCOc2ccc(cc2)-c2ccnc(n2)Nc2ccc(N3CCOCC3)c(c2)CN2CCC[C@@H]12` [Compound 7], the IC50 on GSK3β (h) was 0.372 µM; at AuroraB (h) it was 6.31 µM; at CDK4/CyclinD1 (h), 6.46 µM; in the test with MDA-MB-231 it was above 10 µM; on PLK2 (h), above 10 µM; in the test on HCT-116, 6.03 µM. In addition, the results for the IC50 in the test with A2780, on PLK4 (h) and on PLK3 (h) were above 10 µM, 0.316 µM and above 10 µM, respectively.
